Reference: patent US20250313563A1, “GLYCOGEN SYNTHASE KINASE 3 INHIBITORS AND USES THEREOF” (The Broad Institute, Inc., priority 2022, published 2025)
Where two headings read alike, the source gives them in different places.

Key:
NanoLuc-GSK3β = NanoLuc-GSK3β (Homo sapiens (Human), UniProt P49841); assay: NanoBRET residence time, GSK3β; assay type: cell-based; conditions: inhibitor at 10× IC50, BRET every 5 min for 3 hours
[1] = target: GSK3b (GST-full length GSK3b) (Homo sapiens (Human), UniProt P49841); assay: GSK3b TR-FRET kinase assay; assay type: biochemical; conditions: geometric mean, GMean
Summary of the method: (§1)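 In this time-resolved FRET format, kinase reactions contained 200 nM biotinylated, S645-phosphorylated glycogen synthase 631-650 peptide and either isoform-specific ATP (2 μM GSK3b, 4 μM GSK3α) or 1 mM ATP. They were quenched with EDTA after 100 min at ambient temperature. Inhibition curves gave IC50 values.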

GSK3α = GSK3α (Homo sapiens (Human), UniProt P49840); assay: AT8 (pS202/pThr205) tau phosphorylation FRET assay, GSK3α-transfected cells; assay type: cell-based; conditions: GSK3α and GSK3β transfected cells
Method: 293T cells stably expressing human 2N4R Tau were transfected with appropriate cDNA plasmids. 24 hours following transfection cells were treated with compound in a 10-point dose-response (from 1000× stocks of compound) and lysates harvested 2 hours later with cell extraction buffer (Life Technologies Cat #BN0001) or RIPA Buffer with Halt protease/phosphatase inhibitors added.
For AT8 assay: FRET antibodies (Custom designed Cisbio assay kit; S202/T205 Tb and total Tau D2 FRET antibodies) were added to lysate in a 384 well assay plate at 1:4 ratio (antibody/lysate). After antibody addition, the plate was left at room temperature for 60 minutes incubation time. Plate was read with appropriate wavelength settings using an Envision plate reader (ex320 and em620 and em665).

GSK3β = GSK3β (Rattus norvegicus (Rat), UniProt P18266); assay: In vivo target engagement assay (chemoproteomics, kinobeads), GSK3β; conditions: P10 rat cortex
Method: Chemoproteomics competition was used to evaluate inhibitor selectivity and target engagement in vivo. Frozen cortexes were prepared for homogenization with 1.2 mL of Lysis Buffer (50 mM Tris-HCl, 0.8% NP-40 ((octylphenoxy poly(ethyleneoxy) ethanol)), 5% glycerol, 150 mM NaCl, 1.5 mM MgCl2, 25 mM NaF, 1 mM sodium vanadate, 1 mM DTT, pH 7.5 and supplemented with protease inhibitors). Tissues were homogenized in FastPrep-24 5G instrument at maximum oscillations for 20 seconds. The resulting brain homogenate was clarified by centrifugation for 1 h at 145 000 g, 4° C. The protein concentration of the supernatant was determined by BCA assay and each sample was diluted to final concentration of 5 mg/mL with lysis buffer. […] The dry peptide mixture was reconstituted in 15 μL of 0.1% trifluoro acetic acid and analyzed on ID nanoLC-MS/MS platform using a standardized 140 min method. Peptides were separated on an Easy-Spray column (75 μm×50 cm, PepMAP C18, 1.9 μm) at 250 nL/min, analyzed on a QExactive HF mass spectrometer at data dependent acquisition (DDA) mode with MS1 at 60,000 and MS2 at 15,000 resolution, respectively. […]
To measure direct target engagement of the compound for both GSK3α and GSK3β competitive chemoproteomics methodology was used. […] Enriched proteins were analyzed by liquid chromatography coupled with tandem mass spectrometry. […]

[2] = target: GSK3α (GST-full length GSK3α) (Homo sapiens (Human), UniProt P49840); assay: GSK3α TR-FRET kinase assay; assay type: biochemical; conditions: geometric mean, GMean
Summary of the method: as §1

GSK3α (GST-full length GSK3α), sequence (P49840 whole entry): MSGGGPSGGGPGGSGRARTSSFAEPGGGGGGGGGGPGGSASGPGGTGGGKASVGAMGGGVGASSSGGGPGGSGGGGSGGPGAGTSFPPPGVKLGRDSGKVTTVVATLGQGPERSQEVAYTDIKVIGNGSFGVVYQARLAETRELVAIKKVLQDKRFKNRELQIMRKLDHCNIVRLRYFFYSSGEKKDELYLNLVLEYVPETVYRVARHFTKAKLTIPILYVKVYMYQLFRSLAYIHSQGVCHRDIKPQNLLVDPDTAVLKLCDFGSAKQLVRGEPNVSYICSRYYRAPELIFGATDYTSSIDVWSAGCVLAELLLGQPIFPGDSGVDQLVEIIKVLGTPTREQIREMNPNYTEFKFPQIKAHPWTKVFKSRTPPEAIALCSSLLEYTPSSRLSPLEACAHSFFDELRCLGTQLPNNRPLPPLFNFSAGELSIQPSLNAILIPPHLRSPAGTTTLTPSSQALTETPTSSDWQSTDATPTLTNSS
GSK3β, sequence (P18266 whole entry): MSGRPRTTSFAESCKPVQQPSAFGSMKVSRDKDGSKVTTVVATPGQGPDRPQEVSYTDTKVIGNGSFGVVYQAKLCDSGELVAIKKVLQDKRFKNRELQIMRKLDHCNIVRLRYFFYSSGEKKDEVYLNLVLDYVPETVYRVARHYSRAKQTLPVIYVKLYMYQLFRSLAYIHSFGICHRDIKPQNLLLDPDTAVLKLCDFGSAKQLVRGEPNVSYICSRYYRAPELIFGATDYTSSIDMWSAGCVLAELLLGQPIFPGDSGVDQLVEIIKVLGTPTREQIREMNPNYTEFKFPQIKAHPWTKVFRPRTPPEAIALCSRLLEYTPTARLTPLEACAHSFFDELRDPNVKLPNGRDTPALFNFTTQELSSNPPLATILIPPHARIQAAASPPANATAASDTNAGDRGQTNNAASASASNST
GSK3b (GST-full length GSK3b), sequence (P49841 whole entry, canonical isoform): as the sequence (P18266 whole entry) above, with M240V, P390T, A392T, T400A, A402T counted along it
GSK3α, sequence (P49840 whole entry): as the sequence (P49840 whole entry) above
NanoLuc-GSK3β, sequence (P49841 whole entry): as the sequence (P18266 whole entry) above, with M240V, P390T, A392T, T400A, A402T counted along it

CCC1(c2cccc(C(F)(F)F)c2)C2=C(Nc3n[nH]cc31)C(F)C(C)(C)CC2=O (single isomer, unassigned) [Compound 837646, 4-ethyl-8-fluoro-7,7-dimethyl-4-(3-(trifluoromethyl)phenyl)-2,4,6,7,8,9-hexahydro-5H-pyrazolo[3,4-b]quinolin-5-one]
residence time at GSK3β (NanoLuc-GSK3β): no difference in the residence time | IC50 ([1]; 1 nM GSK3b, 2 μM ATP, 30 minute preincubation, read-out: GSK3-B TR-FRET BIOCHEMICAL (TR-FRET), IC50): ≤ 100 nM | IC50 ([1]; GSK3-B (TR-FRET 1 mM ATP), IC50, 1 mM ATP): 1000 to 5000 nM | relative cellular potency and paralog selectivity at pS202/pThr205 (AT8) compared with pThr231 assay (GSK3α): similar | binding to GSK3β, 24 hr (GSK3β; 24 hr): no significant binding detected | target engagement for GSK3β, 3 hours (GSK3β; three hours after dosing (Cmax, 60 mg/kg)): 40% | IC50 ([2]; 1 nM GSK3α, 4 μM ATP, 30 minute preincubation, read-out: GSK3-A TR-FRET BIOCHEMICAL (TR-FRET), IC50): ≤ 100 nM | IC50 ([2]; GSK3-A (TR-FRET 1 mM ATP), IC50, 1 mM ATP): ≤ 100 nM
